Paper PMC6779907, “Bengamides display potent activity against drug-resistant Mycobacterium tuberculosis” (Scientific Reports, 2019)

Experiments:
Format in all cases: biochemical
HsMetAP1b [1] = biological target: T1, HsMetAP1b (Homo sapiens, UniProt P53582); test: fluorescence, hydrolysis of methionyl aminomethylcoumarin
T1 construct: gene METAP1; expressed in E. coli and purified

MtMetAP1c [2] = biological target: T2, MtMetAP1c (Mycobacterium tuberculosis, UniProt P9WK19); test: as above
T2 construct: gene map
T2 sequence (P9WK19 whole entry, looked up): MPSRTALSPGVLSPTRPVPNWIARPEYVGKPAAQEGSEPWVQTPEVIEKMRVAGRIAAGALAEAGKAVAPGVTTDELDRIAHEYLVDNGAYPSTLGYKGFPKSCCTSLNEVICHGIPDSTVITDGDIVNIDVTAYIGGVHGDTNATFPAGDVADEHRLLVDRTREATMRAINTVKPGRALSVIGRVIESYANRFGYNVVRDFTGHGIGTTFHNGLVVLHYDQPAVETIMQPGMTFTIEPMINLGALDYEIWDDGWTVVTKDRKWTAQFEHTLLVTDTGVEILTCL

EfMetAP1b [3] = biological target: T3, EfMetAP1b (Enterococcus faecalis, UniProt Q832M5); test: as above
T3 construct: gene map; expressed in E. coli and purified
T3 sequence (Q832M5 1-254): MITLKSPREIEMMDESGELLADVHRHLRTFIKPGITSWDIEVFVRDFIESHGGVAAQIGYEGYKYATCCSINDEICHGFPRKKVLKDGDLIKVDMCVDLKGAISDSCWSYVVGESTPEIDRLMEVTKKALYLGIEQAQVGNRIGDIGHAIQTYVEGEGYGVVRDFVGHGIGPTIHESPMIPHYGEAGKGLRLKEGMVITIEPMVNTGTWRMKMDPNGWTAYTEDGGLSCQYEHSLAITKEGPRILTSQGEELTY

EfMetAP1b [4] = biological target: T3, EfMetAP1b; test: fluorescence, substrate hydrolysis; conditions: room temperature; metal not given
MtMetAP1c [5] = biological target: T2, MtMetAP1c; conditions: room temperature; metal not given
HsMetAP1b [6] = biological target: T1, HsMetAP1b; test: fluorescence, substrate hydrolysis; conditions: room temperature; metal not given

Row | SMILES | inhibition at 50 µM (HsMetAP1b [1]) [%] | inhibition at 50 µM (MtMetAP1c [2]) [%] | inhibition at 50 µM (EfMetAP1b [3]) [%] | fluorescence, substrate hydrolysis (EfMetAP1b [4]) | fluorescence, substrate hydrolysis (MtMetAP1c [5]) | fluorescence, substrate hydrolysis (HsMetAP1b [6])
1 | CCCCCCCCCCCCCC(=O)O[C@H]1CC[C@H](NC(=O)[C@H](OC)[C@H](O)[C@@H](O)[C@H](O)/C=C/C(C)C)C(=O)N(C)C1 [F12, bengamide B] | 84.7 | 72.8 | 83.3 | – | – | –
2 | CSCC[C@H](N)C(=O)Nc1ccc2c(C)cc(=O)oc2c1 [methionyl aminomethylcoumarin] | – | – | – | enzymatic activity was monitored by fluorescence readings following hydrolysis of the fluorogenic substrate, methionyl aminomethylcoumarin | enzymatic activity was monitored by fluorescence readings following hydrolysis of the fluorogenic substrate, methionyl aminomethylcoumarin | enzymatic activity was monitored by fluorescence readings following hydrolysis of the fluorogenic substrate, methionyl aminomethylcoumarin
